Source: patent US20070191334A1, “Tricyclic imidazopyridines” (ALTANA PHARMA AG, priority 2004, published 2007)

What follows are molecules tested on pentagastrin-stimulated acid secretion of the perfused rat stomach (assay: Secretion-inhibiting action on the perfused rat stomach (pentagastrin-stimulated acid secretion, intraduodenal administration in vivo)). Details: Table A, dose 1 μmol/kg i.d., anesthetized CD rat.
From the text: Testing of the Secretion-Inhibiting Action on the Perfused Rat Stomach
In Table A which follows, the influence of the compounds of the formula 1 according to the invention on the pentagastrin-stimulated acid secretion of the perfused rat stomach after intraduodenal administration in vivo is shown.
In Table B which follows, the influence of the compounds of the formula 1-a according to the invention and of their optical antipodes of the formula 1-b on the pentagastrin-stimulated acid secretion of the perfused rat stomach after intraduodenal administration in vivo is shown.
The abdomen of anesthetized rats (CD rat, female, 200-250 g; 1.5 g/kg i.m. urethane) was opened after tracheotomy by a median upper abdominal incision and a PVC catheter was fixed transorally in the esophagus and another via the pylorus such that the ends of the tubes just projected into the gastric lumen. The catheter leading from the pylorus led outward into the right abdominal wall through a side opening.
After thorough rinsing (about 50-100 ml), warm (37° C.) physiological NaCl solution was continuously passed through the stomach (0.5 ml/min, pH 6.8-6.9; Braun-Unita I). The pH (pH meter 632, glass electrode EA 147; φ=5 mm, Metrohm) and, by titration with a freshly prepared 0.01N NaOH solution to pH 7 (Dosimat 665 Metrohm), the secreted HCl were determined in the effluent in each case collected at an interval of 15 minutes.
The gastric secretion was stimulated by continuous infusion of […] (=1.65 ml/h) of i.v. pentagastrin (left femoral vein) about 30 min after the end of the operation (i.e. after determination of 2 preliminary fractions). The substances to be tested were administered intraduodenally in a 2.5 ml/kg liquid volume 60 min after the start of the continuous pentagastrin infusion. The body temperature of the animals was kept at a constant 37.8-38° C. by infrared irradiation and heat pads (automatic, stepless control by means of a rectal temperature sensor).
For `COCCNC(=O)c1c(C)nc2c3c(c(C(=O)N(C)C)cn12)CCC(c1ccccc1)O3` (centres unmarked) [Example 4, 2-Methyl-9-phenyl-7H-8,9-dihydro-pyrano[2,3-c]imidazo[1,2-a]pyridine-3,6-dicarboxylic acid 3-[(2-methoxyethyl)amide]6-dimethylamide], the “Inhibition of acid secretion (%)” value was >40%.
With `Cc1nc2c3c(c(C(=O)NC4CC4)cn2c1C)CCC(c1ccccc1)O3` (centres unmarked) [Example 13, 2,3-Dimethyl-9-phenyl-7H-8,9-dihydro-pyrano[2,3-c]-imidazo[1,2-a]pyridine-6-carboxylic acid cyclopropylamide] the “Inhibition of acid secretion (%)” value was >70%.
With `Cc1nc2c3c(c(C(=O)N4CCC4)cn2c1C)CCC(c1ccccc1)O3` (centres unmarked) [Example 11, (2,3-Dimethyl-9-phenyl-7H-8,9-dihydro-pyrano[2,3-c]-imidazo[1,2-a]pyridin-6-yl)-azetidin-1-yl methanone] the “Inhibition of acid secretion (%)” value was >70%.
For `CC#CC(=O)c1c(C)nc2c3c(c(C(=O)N(C)C)cn12)CCC(c1ccccc1)O3` (centres unmarked) [Example 6, 2-Methyl-3-(1-oxo-2-butynyl)-9-phenyl-7H-8,9-dihydro-pyrano[2,3-c]imidazo[1,2-a]pyridine-6-carboxylic acid dimethylamide], the “Inhibition of acid secretion (%)” value was >40%.
`CC(=O)c1c(C)nc2c3c(c(C(=O)N(C)C)cn12)CCC(c1ccccc1)O3` (centres unmarked) [Example 9, 3-Acetyl-2-methyl-9-phenyl-7H-8,9-dihydro-pyrano[2,3-c]imidazo-[1,2-a]pyridine-6-carboxylic acid dimethylamide] was tested, and the “Inhibition of acid secretion (%)” value was >40%.
